{"source": "PubChem BioAssay AID2060882", "about": "(Molecular Pharmacology Branch, DTP, NCI, 2025);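 note: spheroids exposed to compound for seven days before readout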;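 for viability, T/C: 100% = DMSO vehicle control wells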", "system": "898857-211-R-J1-PDC complex spheroids, growth % test/control", "test": "Anticancer human tumor 898857-211-R-J1-PDC patient-derived melanoma cell line growth inhibition [RAS]", "conditions": "for IC50: curve of first compound; for viability, T/C: stronger effect = lower value", "how_it_was_run": "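Agents were tested in combination matrices in half-log decrements from a top concentration at or near clinical Cmax (10 microM if undetermined). Targets were multi-cell spheroids of tumour lines plus HUVEC and MSC stromal cells.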", "key": {"[1]": {"conditions": "second compound 0.00316 µM, first compound 0.0316 µM"}, "[2]": {"conditions": "second compound 0.00316 µM, first compound 0.1 µM"}, "[3]": {"conditions": "second compound 0.00316 µM, first compound 0.316 µM"}, "[4]": {"conditions": "second compound 0.00316 µM, first compound 1 µM"}, "[5]": {"conditions": "second compound 0.00316 µM, first compound 3.16 µM"}, "[6]": {"conditions": "second compound 0.00316 µM, first compound 10 µM"}, "[7]": {"conditions": "second compound 0.01 µM, first compound 0.0316 µM"}, "[8]": {"conditions": "second compound 0.01 µM, first compound 0.1 µM"}, "[9]": {"conditions": "second compound 0.01 µM, first compound 0.316 µM"}, "[10]": {"conditions": "second compound 0.01 µM, first compound 1 µM"}, "[11]": {"conditions": "second compound 0.01 µM, first compound 3.16 µM"}, "[12]": {"conditions": "second compound 0.01 µM, first compound 10 µM"}, "[13]": {"conditions": "second compound 0.0316 µM, first compound 0.0316 µM"}, "[14]": {"conditions": "second compound 0.0316 µM, first compound 0.1 µM"}, "[15]": {"conditions": "second compound 0.0316 µM, first compound 0.316 µM"}, "[16]": {"conditions": "second compound 0.0316 µM, first compound 1 µM"}, "[17]": {"conditions": "second compound 0.0316 µM, first compound 3.16 µM"}, "[18]": {"conditions": "second compound 0.0316 µM, first compound 10 µM"}, "[19]": {"conditions": "second compound 0.1 µM, first compound 0.0316 µM"}, "[20]": {"conditions": "second compound 0.1 µM, first compound 0.1 µM"}, "[21]": {"conditions": "second compound 0.1 µM, first compound 0.316 µM"}, "[22]": {"conditions": "second compound 0.1 µM, first compound 1 µM"}, "[23]": {"conditions": "second compound 0.1 µM, first compound 3.16 µM"}, "[24]": {"conditions": "second compound 0.1 µM, first compound 10 µM"}, "[25]": {"conditions": "second compound 0.316 µM, first compound 0.0316 µM"}, "[26]": {"conditions": "second compound 0.316 µM, first compound 0.1 µM"}, "[27]": {"conditions": "second compound 0.316 µM, first compound 0.316 µM"}, "[28]": {"conditions": "second compound 0.316 µM, first compound 1 µM"}, "[29]": {"conditions": "second compound 0.316 µM, first compound 3.16 µM"}, "[30]": {"conditions": "second compound 0.316 µM, first compound 10 µM"}, "[31]": {"conditions": "second compound 1 µM, first compound 0.0316 µM"}, "[32]": {"conditions": "second compound 1 µM, first compound 0.1 µM"}, "[33]": {"conditions": "second compound 1 µM, first compound 0.316 µM"}, "[34]": {"conditions": "second compound 1 µM, first compound 1 µM"}, "[35]": {"conditions": "second compound 1 µM, first compound 3.16 µM"}, "[36]": {"conditions": "second compound 1 µM, first compound 10 µM"}}, "data": [{"smiles": "CCC(CC)c1cc(NC2CCC(N)C2)n2nccc2n1", "note": "(centres undefined) + C=CC(=O)N1CCN(c2nc(OCC3CCCN3C)nc3c(F)c(-c4nc(N)cc(C)c4C(F)(F)F)c(Cl)cc23)C(C)C1", "values": [{"measurement": "IC50", "setting": "second compound 0.00316 µM", "value": 806, "unit": "nM"}, {"measurement": "IC50", "setting": "second compound 0.01 µM", "value": 851, "unit": "nM"}, {"measurement": "IC50", "setting": "second compound 0.0316 µM", "value": 1130, "unit": "nM"}, {"measurement": "IC50", "setting": "second compound 0.1 µM", "value": 1220, "unit": "nM"}, {"measurement": "IC50", "setting": "second compound 0.316 µM", "value": 1300, "unit": "nM"}, {"measurement": "IC50", "setting": "second compound 1 µM", "value": 1160, "unit": "nM"}, {"measurement": "viability, T/C", "setting": "[1]", "value": 119, "unit": "%"}, {"measurement": "viability, T/C", "setting": "[2]", "value": 97.5, "unit": "%"}, {"measurement": "viability, T/C", "setting": "[3]", "value": 81.5, "unit": "%"}, {"measurement": "viability, T/C", "setting": "[4]", "value": 49.1, "unit": "%"}, {"measurement": "viability, T/C", "setting": "[5]", "value": 1.15, "unit": "%"}, {"measurement": "viability, T/C", "setting": "[6]", "value": 0.2, "unit": "%"}, {"measurement": "viability, T/C", "setting": "[7]", "value": 114, "unit": "%"}, {"measurement": "viability, T/C", "setting": "[8]", "value": 97.8, "unit": "%"}, {"measurement": "viability, T/C", "setting": "[9]", "value": 81.7, "unit": "%"}, {"measurement": "viability, T/C", "setting": "[10]", "value": 51, "unit": "%"}, {"measurement": "viability, T/C", "setting": "[11]", "value": 0.97, "unit": "%"}, {"measurement": "viability, T/C", "setting": "[12]", "value": 0.25, "unit": "%"}, {"measurement": "viability, T/C", "setting": "[13]", "value": 104, "unit": "%"}, {"measurement": "viability, T/C", "setting": "[14]", "value": 104, "unit": "%"}, {"measurement": "viability, T/C", "setting": "[15]", "value": 102, "unit": "%"}, {"measurement": "viability, T/C", "setting": "[16]", "value": 56, "unit": "%"}, {"measurement": "viability, T/C", "setting": "[17]", "value": 1.12, "unit": "%"}, {"measurement": "viability, T/C", "setting": "[18]", "value": 0.25, "unit": "%"}, {"measurement": "viability, T/C", "setting": "[19]", "value": 95.5, "unit": "%"}, {"measurement": "viability, T/C", "setting": "[20]", "value": 110, "unit": "%"}, {"measurement": "viability, T/C", "setting": "[21]", "value": 101, "unit": "%"}, {"measurement": "viability, T/C", "setting": "[22]", "value": 60, "unit": "%"}, {"measurement": "viability, T/C", "setting": "[23]", "value": 1.01, "unit": "%"}, {"measurement": "viability, T/C", "setting": "[24]", "value": 0.21, "unit": "%"}, {"measurement": "viability, T/C", "setting": "[25]", "value": 123, "unit": "%"}, {"measurement": "viability, T/C", "setting": "[26]", "value": 119, "unit": "%"}, {"measurement": "viability, T/C", "setting": "[27]", "value": 104, "unit": "%"}, {"measurement": "viability, T/C", "setting": "[28]", "value": 66.3, "unit": "%"}, {"measurement": "viability, T/C", "setting": "[29]", "value": 1.11, "unit": "%"}, {"measurement": "viability, T/C", "setting": "[30]", "value": 0.26, "unit": "%"}, {"measurement": "viability, T/C", "setting": "[31]", "value": 120, "unit": "%"}, {"measurement": "viability, T/C", "setting": "[32]", "value": 117, "unit": "%"}, {"measurement": "viability, T/C", "setting": "[33]", "value": 101, "unit": "%"}, {"measurement": "viability, T/C", "setting": "[34]", "value": 59.7, "unit": "%"}, {"measurement": "viability, T/C", "setting": "[35]", "value": 0.94, "unit": "%"}, {"measurement": "viability, T/C", "setting": "[36]", "value": 0.24, "unit": "%"}]}, {"smiles": "Cc1nc(N2CCC3(CC2)COC(C)C3N)c(CO)nc1Sc1ccnc(N)c1Cl", "note": "(centres undefined) + C=CC(=O)N1CCN(c2nc(OCC3CCCN3C)nc3c(F)c(-c4nc(N)cc(C)c4C(F)(F)F)c(Cl)cc23)C(C)C1", "values": [{"measurement": "IC50", "setting": "second compound 0.00316 µM", "value": "> 10000", "unit": "nM"}, {"measurement": "IC50", "setting": "second compound 0.01 µM", "value": "> 10000", "unit": "nM"}, {"measurement": "IC50", "setting": "second compound 0.0316 µM", "value": "> 10000", "unit": "nM"}, {"measurement": "IC50", "setting": "second compound 0.1 µM", "value": "> 10000", "unit": "nM"}, {"measurement": "IC50", "setting": "second compound 0.316 µM", "value": "> 10000", "unit": "nM"}, {"measurement": "IC50", "setting": "second compound 1 µM", "value": "> 10000", "unit": "nM"}, {"measurement": "viability, T/C", "setting": "[1]", "value": 101, "unit": "%"}, {"measurement": "viability, T/C", "setting": "[2]", "value": 92.4, "unit": "%"}, {"measurement": "viability, T/C", "setting": "[3]", "value": 89, "unit": "%"}, {"measurement": "viability, T/C", "setting": "[4]", "value": 82.2, "unit": "%"}, {"measurement": "viability, T/C", "setting": "[5]", "value": 98.5, "unit": "%"}, {"measurement": "viability, T/C", "setting": "[6]", "value": 92.1, "unit": "%"}, {"measurement": "viability, T/C", "setting": "[7]", "value": 97.7, "unit": "%"}, {"measurement": "viability, T/C", "setting": "[8]", "value": 94.6, "unit": "%"}, {"measurement": "viability, T/C", "setting": "[9]", "value": 80.8, "unit": "%"}, {"measurement": "viability, T/C", "setting": "[10]", "value": 91, "unit": "%"}, {"measurement": "viability, T/C", "setting": "[11]", "value": 96.8, "unit": "%"}, {"measurement": "viability, T/C", "setting": "[12]", "value": 81.1, "unit": "%"}, {"measurement": "viability, T/C", "setting": "[13]", "value": 104, "unit": "%"}, {"measurement": "viability, T/C", "setting": "[14]", "value": 102, "unit": "%"}, {"measurement": "viability, T/C", "setting": "[15]", "value": 95.4, "unit": "%"}, {"measurement": "viability, T/C", "setting": "[16]", "value": 98.5, "unit": "%"}, {"measurement": "viability, T/C", "setting": "[17]", "value": 97.3, "unit": "%"}, {"measurement": "viability, T/C", "setting": "[18]", "value": 99.5, "unit": "%"}, {"measurement": "viability, T/C", "setting": "[19]", "value": 96.4, "unit": "%"}, {"measurement": "viability, T/C", "setting": "[20]", "value": 102, "unit": "%"}, {"measurement": "viability, T/C", "setting": "[21]", "value": 95.6, "unit": "%"}, {"measurement": "viability, T/C", "setting": "[22]", "value": 94, "unit": "%"}, {"measurement": "viability, T/C", "setting": "[23]", "value": 96.3, "unit": "%"}, {"measurement": "viability, T/C", "setting": "[24]", "value": 91.7, "unit": "%"}, {"measurement": "viability, T/C", "setting": "[25]", "value": 110, "unit": "%"}, {"measurement": "viability, T/C", "setting": "[26]", "value": 102, "unit": "%"}, {"measurement": "viability, T/C", "setting": "[27]", "value": 107, "unit": "%"}, {"measurement": "viability, T/C", "setting": "[28]", "value": 103, "unit": "%"}, {"measurement": "viability, T/C", "setting": "[29]", "value": 98.1, "unit": "%"}, {"measurement": "viability, T/C", "setting": "[30]", "value": 93.5, "unit": "%"}, {"measurement": "viability, T/C", "setting": "[31]", "value": 110, "unit": "%"}, {"measurement": "viability, T/C", "setting": "[32]", "value": 106, "unit": "%"}, {"measurement": "viability, T/C", "setting": "[33]", "value": 92.9, "unit": "%"}, {"measurement": "viability, T/C", "setting": "[34]", "value": 97.4, "unit": "%"}, {"measurement": "viability, T/C", "setting": "[35]", "value": 107, "unit": "%"}, {"measurement": "viability, T/C", "setting": "[36]", "value": 82.2, "unit": "%"}]}]}
